Assay results from patent publication US20230193192A1 (priority 2021, published 2023).
Values after ≈ are worked out from the molar mass of the structure shown.

Assays:
NIH B38 = conditions: cited from earlier work
LVS = conditions: standard conditions; cited from earlier work
F. novicida = type: cell-based, Francisella novicida; conditions: for MIC: pH 7.1
[1] = test system: Galleria mellonella (waxworm) larvae; conditions: in vivo
F. tularensis LVS = type: cell-based, Francisella tularensis holarctica Live Vaccine Strain; conditions: for MIC: pH 7.1
[2] = test system: Francisella tularensis holarctica Live Vaccine Strain; conditions: cited from earlier work
Francisella philomiragia = type: cell-based
[3] = test system: Francisella tularensis tularensis Schu4; conditions: cited from earlier work
Francisella novicida [4] = conditions: cited from earlier work
Francisella novicida [5] = conditions: cited from earlier work; remark: listed apart in the source

| Molecule | MIC (NIH B38) [µg/mL] | MIC (LVS) [µg/mL] | This study Colistin (F. novicida) | MIC (F. novicida) [µg/mL] | Toxicity, survival of waxworms [1] | This study Colistin (F. tularensis LVS) | MIC (F. tularensis LVS) [µg/mL] | Kirby Bauer Colistin [2] [mm] | This study Colistin (Francisella philomiragia) | Kirby Bauer Polymyxin B [3] [mm] | This study Polymyxin B (F. novicida) | MIC (Francisella novicida [4]) [µg/mL] | This study Polymyxin B (F. tularensis LVS) | Kirby Bauer Polymyxin B (Francisella novicida [5]) [mm] | This study Polymyxin B (Francisella philomiragia) |
| --- | --- | --- | --- | --- | --- | --- | --- | --- | --- | --- | --- | --- | --- | --- | --- |
| [H]/N=C(/N)N[C@H]1[C@H](O)[C@@H](O)[C@H](O[C@@H]2O[C@@H](C)[C@](O)(C=O)[C@H]2O[C@@H]2O[C@@H](CO)[C@H](O)[C@@H](O)[C@@H]2NC)[C@@H](N/C(N)=N\[H])[C@@H]1O [Streptomycin, D-Streptamine, O-2-deoxy-2-(methylamino)-α-L-glucopyranosyl-(1->2)-O-5-deoxy-3-C-formyl-α-L-lyxofuranosyl-(1->4)-N1,N3-bis(aminoiminomethyl)-] | 0.25 (≈ 0.43 µM) | 0.38 (≈ 0.653 µM) |  |  |  |  |  |  |  |  |  |  |  |  |  |
| Colistin |  |  | ~1024 | 1024 | killed the waxworms | > 1024 | >1024 | 0 | > 1024 |  |  |  |  |  |  |
| Polymyxin B |  |  |  | 256 | killed the waxworms |  | 256 |  |  | 10 | 256 | 38 | 256 | 19 | 1024 |
